Laboratory results reported in patent US20210290648A1, “Potentiation of B-Lactam Antibiotics and B-Lactam/B-Lactamase Inhibitor Combinations Against Multidrug and Extensively Drug-Resistant Pseudomonas Aeruginosa Using Non-Ribosomal Tobramycin-Cyclam Conjugates” (University of Manitoba, priority 2018, published 2021).

Columns and labels:
PA 100036 = test: Checkerboard combination study / MIC; format: cell-based, Pseudomonas aeruginosa
PA 101885 = test: Checkerboard combination study / MIC; format: cell-based, Pseudomonas aeruginosa
PA 259 = test: Checkerboard combination study / MIC; format: cell-based, Pseudomonas aeruginosa
PA 260 = test: Checkerboard combination study / MIC; format: cell-based, Pseudomonas aeruginosa
PA 262 = test: Checkerboard combination study / MIC; format: cell-based, Pseudomonas aeruginosa
PA 264 = test: Checkerboard combination study / MIC; format: cell-based, Pseudomonas aeruginosa
PA 91433 = test: Checkerboard combination study / MIC; format: cell-based, Pseudomonas aeruginosa; conditions: for MICCombination (2) / FIC2: PA 91433
[1] = tested on: Galleria mellonella larvae; test: Galleria mellonella tolerability study; conditions: 100 mg/kg and 200 mg/kg injected alone; after 48 h
Method: In vitro and in vivo discordances have been observed in antimicrobial chemotherapy, thus, therapeutic efficacy may not necessarily be reliably extrapolated based on in vitro data alone. […] Colistin (100 mg/kg), an antibiotic well known for its toxicity towards eukaryotes, served as a positive control for this experiment while PBS served as negative control. […] Survivability was scored for a total of 4 days.
In vivo larvae-infection model. In vivo synergistic effects were determined using Galleria mellonella infection model, as previously described (20). Briefly, worms were purchased from The Worm Lady® Live Feeder (ON, Canada), stored in their natural habitat at 16° C., and used within 10 days of delivery. The worms (average weight of 250 mg) were used for tolerability and efficacy studies. Tolerability study was performed by injecting 10 μL of antimicrobial agents only at concentrations equivalent to 100 mg/kg or 200 mg/kg. The worms (ten in each group) were incubated at 37° C. and monitored for 96 h. […] Overnight grown culture of respective MDR P. aeruginosa isolate was standardized to 0.5 McFarland standard and diluted in PBS to a final concentration of […]. 10 μL of this solution (5 CFU) was injected into each worm and incubated for 3 h at 37° C. […] Worms treated with 10 μL PBS or high concentrations of test antibiotics served as negative and positive control, respectively. The worms were incubated at 37° C. in Petri dishes lined with filter paper and scored for survivability every 6 h for up to 48 h. This experiment was repeated to give a total of thirty worms (n=30) in each case. Survival data curves were plotted using Kaplan-Meier survival analysis.

5-O-(Octylcyclam)-tobramycin.9TFA [Compound 2]
MICCombination (2) (PA 100036; MIC of 2 combined with AZT): 8 µg/mL | MICCombination (2) (PA 100036; MIC of 2 combined with CAZ): 8 µg/mL | MICCombination (2) (PA 100036; MIC of 2 combined with CEF): 16 µg/mL | MICCombination (2) (PA 100036; MIC of 2 combined with DOR): 16 µg/mL | MICCombination (2) (PA 100036; MIC of 2 combined with MER): 2 µg/mL | MICCombination (2) (PA 100036; MIC of 2 combined with PIP): 16 µg/mL | FIC2 (PA 100036; with AZT): <0.0313 | FIC2 (PA 100036; with CAZ): <0.0313 | FIC2 (PA 100036; with CEF): <0.0625 | FIC2 (PA 100036; with DOR): <0.0625 | FIC2 (PA 100036; with MER): <0.0078 | FIC2 (PA 100036; with PIP): <0.0625 | MICCombination (2) (PA 101885; MIC of 2 combined with AZT): 16 µg/mL | MICCombination (2) (PA 101885; MIC of 2 combined with CAZ): 8 µg/mL | MICCombination (2) (PA 101885; MIC of 2 combined with CEF): 16 µg/mL | MICCombination (2) (PA 101885; MIC of 2 combined with DOR): 4 µg/mL | MICCombination (2) (PA 101885; MIC of 2 combined with MER): 8 µg/mL | MICCombination (2) (PA 101885; MIC of 2 combined with PIP): 16 µg/mL | FIC2 (PA 101885; with AZT): <0.0625 | FIC2 (PA 101885; with CAZ): <0.0313 | FIC2 (PA 101885; with CEF): <0.0625 | FIC2 (PA 101885; with DOR): <0.0156 | FIC2 (PA 101885; with MER): <0.0313 | FIC2 (PA 101885; with PIP): <0.0625 | MICCombination (2) (PA 259; MIC of 2 combined with AZT): 16 µg/mL | MICCombination (2) (PA 259; MIC of 2 combined with CAZ): 16 µg/mL | MICCombination (2) (PA 259; MIC of 2 combined with CEF): 16 µg/mL | MICCombination (2) (PA 259; MIC of 2 combined with MER): 16 µg/mL | MICCombination (2) (PA 259; MIC of 2 combined with PIP): 1 µg/mL | FIC2 (PA 259; with AZT): <0.0625 | FIC2 (PA 259; with CAZ): <0.0625 | FIC2 (PA 259; with CEF): <0.0625 | FIC2 (PA 259; with MER): <0.0625 | FIC2 (PA 259; with PIP): <0.0039 | MICCombination (2) (PA 260; MIC of 2 combined with AZT): 16 µg/mL | MICCombination (2) (PA 260; MIC of 2 combined with CAZ): 4 µg/mL | MICCombination (2) (PA 260; MIC of 2 combined with CEF): 8 µg/mL | MICCombination (2) (PA 260; MIC of 2 combined with DOR): 8 µg/mL | MICCombination (2) (PA 260; MIC of 2 combined with MER): 8 µg/mL | MICCombination (2) (PA 260; MIC of 2 combined with PIP): 16 µg/mL | FIC2 (PA 260; with AZT): <0.0625 | FIC2 (PA 260; with CAZ): <0.0156 | FIC2 (PA 260; with CEF): <0.0313 | FIC2 (PA 260; with DOR): <0.0313 | FIC2 (PA 260; with MER): <0.0313 | FIC2 (PA 260; with PIP): <0.0625 | MICCombination (2) (PA 262; MIC of 2 combined with AZT): 8 µg/mL | MICCombination (2) (PA 262; MIC of 2 combined with CAZ): 16 µg/mL | MICCombination (2) (PA 262; MIC of 2 combined with CEF): 16 µg/mL | MICCombination (2) (PA 262; MIC of 2 combined with DOR): 16 µg/mL | MICCombination (2) (PA 262; MIC of 2 combined with MER): 16 µg/mL | MICCombination (2) (PA 262; MIC of 2 combined with PIP): 4 µg/mL | FIC2 (PA 262; with AZT): <0.0313 | FIC2 (PA 262; with CAZ): <0.0625 | FIC2 (PA 262; with CEF): <0.0625 | FIC2 (PA 262; with DOR): <0.0625 | FIC2 (PA 262; with MER): <0.0625 | FIC2 (PA 262; with PIP): <0.0156 | MICCombination (2) (PA 264; MIC of 2 combined with AZT): 8 µg/mL | MICCombination (2) (PA 264; MIC of 2 combined with CAZ): 8 µg/mL | MICCombination (2) (PA 264; MIC of 2 combined with CEF): 16 µg/mL | MICCombination (2) (PA 264; MIC of 2 combined with DOR): 4 µg/mL | MICCombination (2) (PA 264; MIC of 2 combined with MER): 4 µg/mL | MICCombination (2) (PA 264; MIC of 2 combined with PIP): 4 µg/mL | FIC2 (PA 264; with AZT): <0.0313 | FIC2 (PA 264; with CAZ): <0.0313 | FIC2 (PA 264; with CEF): <0.0625 | FIC2 (PA 264; with DOR): <0.0156 | FIC2 (PA 264; with MER): <0.0156 | FIC2 (PA 264; with PIP): <0.0156 | MICCombination (2) (PA 91433; MIC of 2 combined with AZT): 16 µg/mL | MICCombination (2) (PA 91433; MIC of 2 combined with CAZ): 0.25 µg/mL | MICCombination (2) (PA 91433; MIC of 2 combined with CEF): 16 µg/mL | MICCombination (2) (PA 91433; MIC of 2 combined with DOR): 8 µg/mL | MICCombination (2) (PA 91433; MIC of 2 combined with MER): 4 µg/mL | potentiation of meropenem (PA 91433; by compound 2, colistin-resistant clinical isolate PA91433): 64 fold | FIC2 (PA 91433; with AZT): <0.0625 | FIC2 (PA 91433; with CAZ): <0.0010 | FIC2 (PA 91433; with CEF): <0.0625 | FIC2 (PA 91433; with DOR): <0.0313 | FIC2 (PA 91433; with MER): <0.0156 | survival of larvae [1]: 100%
